# Molecular target: T1, TPM3-TRKA fusion protein (Homo sapiens, UniProt P04629)
# T1 construct: The resulted chimeric proteins always retain the kinase domain of TRK proteins; TPM3 (fusion partner, N-terminal part of tropomyosin alpha-3, P06753); endogenous in cells; host or cells: KM12 colon cancer cells; the other entry of the earlier key: TPM3 (P06753, Tropomyosin alpha-3 chain)
# Experiment: TPM3-TRKA fusion protein levels in KM12 cells (Western blot)
# Assay type: cell-based
# Conditions: 16 h; TPM3-TRKA degradation in KM12 cells at 10 nM compound, category of percentage degradation; read-out: Degradation (at 10 nM)
# How it was run: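 TPM3-TRKA levels were assessed by Western blot with chemiluminescent detection and band densitometry, after SDS-PAGE of BCA-normalized RIPA lysates. Before lysis, KM12 cells received DMSO, compounds or matched control compounds at concentrations including 0.1, 1, 10 and 100 nM and 0.4–30 nM. Exposures lasted 4 h, 8–16 h or 16 h.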
# T1 sequence (P04629 with tags, fused parts or gaps): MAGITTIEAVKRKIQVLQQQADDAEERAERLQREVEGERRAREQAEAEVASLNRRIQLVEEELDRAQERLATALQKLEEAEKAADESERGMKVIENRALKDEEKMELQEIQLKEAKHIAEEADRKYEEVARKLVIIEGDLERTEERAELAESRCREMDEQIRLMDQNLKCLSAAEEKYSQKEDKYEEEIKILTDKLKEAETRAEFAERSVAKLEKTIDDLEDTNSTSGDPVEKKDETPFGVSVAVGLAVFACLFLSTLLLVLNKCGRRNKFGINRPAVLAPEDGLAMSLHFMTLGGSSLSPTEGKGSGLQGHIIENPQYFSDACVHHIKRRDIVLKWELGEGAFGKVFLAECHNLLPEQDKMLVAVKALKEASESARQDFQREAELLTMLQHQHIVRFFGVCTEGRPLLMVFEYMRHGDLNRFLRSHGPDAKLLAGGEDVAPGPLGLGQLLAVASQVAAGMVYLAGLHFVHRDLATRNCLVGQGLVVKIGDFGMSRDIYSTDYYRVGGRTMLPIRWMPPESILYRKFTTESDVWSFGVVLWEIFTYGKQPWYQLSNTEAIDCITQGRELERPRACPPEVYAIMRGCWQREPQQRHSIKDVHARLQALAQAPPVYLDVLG
row,Structure (SMILES),percent degradation of TPM3-TRKA protein at 0.01 µM [%]
1,"O=C1CCC(N2Cc3ccc(C#CC(=O)N4CCN(c5cccc(-c6cnc7ccc(N8CCC[C@@H]8c8cccc(F)c8)nn67)n5)CC4)cc3C2=O)C(=O)N1 (stereo partly drawn) [TR-202, 3-(6-(3-(4-(6-(6-((R)-2-(3-Fluorophenyl)pyrrolidin-1-yl)imidazo[1,2-b]pyridazin-3-yl)pyridin-2-yl)piperazin-1-yl)-3-oxoprop-1-yn-1-yl)-1-oxoisoindolin-2-yl)piperidine-2,6-dione]",50 to 80
2,"O=C1CCC(N2C[C@H](c3ccc(CN4CCN(c5cccc(-c6cnc7ccc(N8CCC[C@@H]8c8cccc(F)c8)nn67)n5)CC4)cc3)OC2=O)C(=O)N1 (stereo partly drawn) [TR-229, 3-((S)-5-(4-((4-(6-(6-((R)-2-(3-fluorophenyl)pyrrolidin-1-yl)imidazo[1,2-b]pyridazin-3-yl)pyridin-2-yl)piperazin-1-yl)methyl)phenyl)-2-oxooxazolidin-3-yl)piperidine-2,6-dione]",50 to 80
3,"O=C(CN1CCN(c2cccc(-c3cnc4ccc(N5CCC[C@@H]5c5cccc(F)c5)nn34)n2)CC1)NCCOCCOCCOCCOCCNc1ccc2c(c1)C(=O)N(C1CCC(=O)NC1=O)C2=O (stereo partly drawn) [TR-125, N-(14-((2-(2,6-dioxopiperidin-3-yl)-1,3-dioxoisoindolin-5-yl)amino)-3,6,9,12-tetraoxatetradecyl)-2-(4-(6-(6-((R)-2-(3-fluorophenyl)pyrrolidin-1-yl)imidazo[1,2-b]pyridazin-3-yl)pyridin-2-yl)piperazin-1-yl)acetamide]",> 80
4,"Cc1ncsc1-c1ccc(CNC(=O)[C@@H]2C[C@@H](O)CN2C(=O)[C@@H](NC(=O)CCCCCCCCCC(=O)N2CCN(c3cccc(-c4cnc5ccc(N6CCC[C@@H]6c6cccc(F)c6)nn45)n3)CC2)C(C)(C)C)cc1 [CPD-022, (25,4R)-1-((S)-2-(11-(4-(6-(6-((R)-2-(3-Fluorophenyl)pyrrolidin-1-yl)imidazo[1,2-b]pyridazin-3-yl)pyridin-2-yl)piperazin-1-yl)-11-oxoundecanamido)-3,3-dimethylbutanoyl)-4-hydroxy-N-(4-(4-methylthiazol-5-yl)benzyl)pyrrolidine-2-carboxamide]",50 to 80
5,"O=C(CN1CCN(c2cccc(-c3cnc4ccc(N5CCC[C@@H]5c5cccc(F)c5)nn34)n2)CC1)NCCCNc1cccc2c1C(=O)N(C1CCC(=O)NC1=O)C2=O (stereo partly drawn) [TR-109, N-(3-((2-(2,6-dioxopiperidin-3-yl)-1,3-dioxoisoindolin-4-yl)amino)propyl)-2-(4-(6-(6-((R)-2-(3-fluorophenyl)pyrrolidin-1-yl)imidazo[1,2-b]pyridazin-3-yl)pyridin-2-yl)piperazin-1-yl)acetamide]",> 80
6,"O=C1CCC(N2Cc3cc(NCC4CCN(c5cccc(-c6cnc7ccc(N8CCC[C@@H]8c8cccc(F)c8)nn67)n5)CC4)ccc3C2=O)C(=O)N1 (stereo partly drawn) [TR-218, 3-(5-(((1-(6-(6-((R)-2-(3-fluorophenyl)pyrrolidin-1-yl)imidazo[1,2-b]pyridazin-3-yl)pyridin-2-yl)piperidin-4-yl)methyl)amino)-1-oxoisoindolin-2-yl)piperidine-2,6-dione]",50 to 80
7,"O=C(CN1CCN(c2cccc(-c3cnc4ccc(N5CCC[C@@H]5c5cccc(F)c5)nn34)n2)CC1)NCCOCCOCCNc1cccc2c1C(=O)N(C1CCC(=O)NC1=O)C2=O (stereo partly drawn) [TR-105, N-(2-(2-(2-((2-(2,6-dioxopiperidin-3-yl)-1,3-dioxoisoindolin-4-yl)amino)ethoxy)ethoxy)ethyl)-2-(4-(6-(6-((R)-2-(3-fluorophenyl)pyrrolidin-1-yl)imidazo[1,2-b]pyridazin-3-yl)pyridin-2-yl)piperazin-1-yl)acetamide]",> 80
8,"O=C(CN1CCN(c2cccc(-c3cnc4ccc(N5CCC[C@@H]5c5cccc(F)c5)nn34)n2)CC1)NCCOCCOCCOCCOCCNc1cccc2c1C(=O)N(C1CCC(=O)NC1=O)C2=O (stereo partly drawn) [TR-108, N-(14-((2-(2,6-dioxopiperidin-3-yl)-1,3-dioxoisoindolin-4-yl)amino)-3,6,9,12-tetraoxatetradecyl)-2-(4-(6-(6-((R)-2-(3-fluorophenyl)pyrrolidin-1-yl)imidazo[1,2-b]pyridazin-3-yl)pyridin-2-yl)piperazin-1-yl)acetamide]",> 80
9,"O=C(CN1CCN(c2cccc(-c3cnc4ccc(N5CCC[C@@H]5c5cccc(F)c5)nn34)n2)CC1)NCCOCCOCCNc1ccc2c(c1)C(=O)N(C1CCC(=O)NC1=O)C2=O (stereo partly drawn) [TR-134, N-(2-(2-(2-((2-(2,6-dioxopiperidin-3-yl)-1,3-dioxoisoindolin-5-yl)amino)ethoxy)ethoxy)ethyl)-2-(4-(6-(6-((R)-2-(3-fluorophenyl)pyrrolidin-1-yl)imidazo[1,2-b]pyridazin-3-yl)pyridin-2-yl)piperazin-1-yl)acetamide]",> 80
10,"O=C1CCC(N2C(=O)c3ccc(NCCCN4CCN(c5cccc(-c6cnc7ccc(N8CCC[C@@H]8c8cccc(F)c8)nn67)n5)CC4)cc3C2=O)C(=O)N1 (stereo partly drawn) [TR-171, 2˜ (2,6-Dioxopiperidin-3-yl)-5-((3-(4-(6-(6-((R)-2-(3-fluorophenyl)pyrrolidin-1-yl)imidazo[1,2-b]pyridazin-3-yl)pyridin-2-yl)piperazin-1-yl)propyl)amino) isoindoline-1,3-dione]",> 80
11,"Cc1ncsc1-c1ccc(CNC(=O)[C@@H]2C[C@@H](O)CN2C(=O)[C@@H](NC(=O)CCC(=O)N2CCN(c3ccc(C(=O)Nc4n[nH]c5ccc(Cc6cc(F)cc(F)c6)cc45)c(NC4CCOCC4)c3)CC2)C(C)(C)C)cc1 [CPD-046, (25,4R)-1-((S)-2-(4-(4-(4-((S-(3,5-Difluorobenzyl)-1H-indazol-3-yl)carbamoyl)-3,3-((tetrahydro-2H-pyran-4-yl)amino)phenyl)piperazin-1-yl)-4-oxobutanamido)-3,3-dimethylbutanoyl)-4-hydroxy-N-(4-(4-methylthiazol-S-yl)benzyl)pyrrolidine-2-carboxamide]",50 to 80
12,"O=C1CCC(N2C[C@H](c3cccc(CN4CCN(c5cccc(-c6cnc7ccc(N8CCC[C@@H]8c8cccc(F)c8)nn67)n5)CC4)c3)OC2=O)C(=O)N1 (stereo partly drawn) [TR-235, 3—((S)-5-(3-((4-(6-(6-((R)-2-(3-Fluorophenyl)pyrrolidin-1-yl)imidazo[1,2-b]pyridazin-3-yl)pyridin-2-yl)piperazin-1-yl)methyl)phenyl)-2-oxooxazolidin-3-yl)piperidine-2,6-dione]",50 to 80
13,"O=C1CCC(N2C(=O)c3cccc(NCC(=O)N4CCN(c5cccc(-c6cnc7ccc(N8CCC[C@@H]8c8cccc(F)c8)nn67)n5)CC4)c3C2=O)C(=O)N1 (stereo partly drawn) [CPD-023, 2-(2,6-Dioxopiperidin-3-yl)-4-((2˜ (4-(6-(6-((R)-2-(3-fluorophenyl)pyrrolidin-1-yl)imidazo[1,2-b]pyridazin-3-yl)pyridin-2-yl)piperazin-1-yl)-2-oxoethyl)amino) isoindoline-1,3-dione]",> 80
14,"O=C1CCC(N2Cc3cc(C#CC4CN(c5cccc(-c6cnc7ccc(N8CCC[C@@H]8c8cccc(F)c8)nn67)n5)C4)ccc3C2=O)C(=O)N1 (stereo partly drawn) [TR-219, 3-(5-((1-(6-(6-((R)-2-(3-Fluorophenyl)pyrrolidin-1-yl)imidazo[1,2-b]pyridazin-3-yl)pyridin-2-yl)azetidin-3-yl)ethynyl)-1-oxoisoindolin-2-yl)piperidine-2,6-dione]",50 to 80

# From patent US12410171B2, “Tropomyosin receptor kinase (TRK) degradation compounds and methods of use” (Cullgen (Shanghai), Inc., priority 2020, dated 2025)
